Where no end group is shown, it is not given here. The star is where a group is joined. Octanoyl = CCCCCCCC(=O)*
Columns and labels:
cultured fetal skin cell = test: Proliferation activity in cultured fetal skin cell (BrdU uptake, Proliferation ELISA); assay type: cell-based, rat; conditions: 24 hours incubation, BrdU 10 μM, versus control medium, FIG. 2
Procedure: The skin cells of a rat fetus were collected from a Wistar rat on the 17th day of pregnancy, and a dispersion liquid thereof was obtained in the same manner as in Example 1. The dispersed cells were suspended in a MCDB153HAA medium (F-Peptide Co., Ltd., Yamagata, Japan) containing 2% fetal bovine serum, penicillin (100 U/mL), streptomycin (100 μg/mL) and epidermal growth factor EGF (5 ng/mL), and sowed on a polyethyleneimine coated 96-hole multi-well plate in an amount of 3×10^4 cells/well. Desacyl ghrelin (0.05 to 500 μmol/mL (nM)) or desacyl ghrelin (1-15)-NH2 (SEQ ID NO: 22) (0.001 to 1 μmol/mL (nM)) and 5-bromo-2′-deoxyuridine (BrdU) (10 μM) were added thereto, which was then incubated for 24 hours. A medium containing neither desacyl ghrelin nor desacyl ghrelin (1-15)-NH2 was used as a control. After the culture was over, cells were collected, and then uptake quantity of BrdU into the fetal skin cell was measured using Proliferation ELISA Kit (Roche Diagnostic GmbH. Manheim, Germany) to consider the skin cell growth activity.
Uptake of BrdU increased when desacyl ghrelin or desacyl ghrelin (1-15)-NH2 acted on a cultured fetal skin cell.

skin cell of rat fetus = test: Intracellular calcium increasing activity in single cultured skin cell of rat fetus (Fura-2 calcium imaging); assay type: cell-based; conditions: for cell response in calcium imaging (FIG. 1 curves): single fetal rat skin cell, ghrelin and desacyl ghrelin added to different cells, concentration not given
Procedure: A Wistar rat on the 17th day of pregnancy underwent laparotomy under anesthesia for fetus extraction. A small piece of skin was collected from the fetus, treated with collagenase in cold Hank's solution, digested with papain, and mechanically separated by pipetting. This gave a dispersion liquid of the fetal skin cells. A single cell was obtained from the dispersion liquid, ghrelin was added thereto, and calcium imaging was performed. For the calcium imaging, a calcium imaging device (IMACS, Hamamatsu Photonics) was used. That is, the ratio of the emission at a wavelength of 510 nm was measured when excitation was performed by 340 nm/380 nm light. Fura-2 was used as a calcium imaging agent. Desacyl ghrelin derived from a rat (SEQ ID NO: 3) was used.
In FIG. 1, I, II and III are the points at which a photograph was taken, but the photographs are omitted from the present description. […] Ghrelin and desacyl ghrelin were added to different cells, respectively.
It was shown that a receptor that responds to desacyl ghrelin existed in the skin cell of the rat fetus, and that addition of desacyl ghrelin increased intracellular calcium, inducing the activity of desacyl ghrelin.

Substance | uptake of BrdU into the fetal skin cell (cultured fetal skin cell; desacyl ghrelin (1-15)-NH2 0.001 to 1 μmol/mL (nM)) | uptake of BrdU into the fetal skin cell (cultured fetal skin cell; desacyl ghrelin 0.05 to 500 μmol/mL (nM)) | intracellular calcium (skin cell of rat fetus; 1×10^−6 M, skin cell of a single rat fetus, Fura-2 ratio 340 nm/380 nm, FIG. 1) | cell response in calcium imaging (FIG. 1 curves) (skin cell of rat fetus)
desacyl ghrelin (1-15)-NH2: Peptide of the N terminus to the 15th amino acid residue of desacyl ghrelin, the 15th amino acid amidated (GSSFLSPEHQKAQQR-NH2; listed as Rattus norvegicus) | increased |  |  | 
desacyl ghrelin: Ghrelin peptide without the acyl (octanoyl) group at the third serine; rat sequence GSSFLSPEHQKAQQRKESKKPPAKLQPR (SEQ ID NO: 3) (PEPTIDE (1)..(28) Amino acid sequence for rat endogenous peptides of growth hormone secretagogue receptor; listed as Rattus norvegicus) |  | increased | increase of intracellular calcium was observed | responded
ghrelin: 28-residue peptide hormone, third amino acid from the N terminus acylated with fatty acid (n-octanoyl); acts on GHS-R1a (GSS(Octanoyl)FLSPEHQRVQQRKESKKPPAKLQPR; UniProt Q9UBU3 24-51, looked up) [reference compound] |  |  |  | responded
